Assay results as given in US11883395B2 (priority 2020, dated 2024).

Test system: human coronavirus (hCOV)-OC43
Assay type: cell-based

O=C1O[C@H]2[C@@H]3OC(=O)c4cc(O)c(O)c(O)c4-c4c(O)c(O)c5oc(=O)c6c(c(O)c(O)c7oc(=O)c4c5c76)-c4c(cc(O)c(O)c4O)C(=O)OC[C@H]3OC(O)[C@@H]2OC(=O)c2cc(O)c(O)c(O)c2-c2c1cc(O)c(O)c2O (mixture of isomers) [punicalagin]
significantly decreased: hCoV-OC43 envelope protein mRNA level | hCoV-OC43 membrane protein mRNA level | hCoV-OC43 spike protein mRNA level

O=C(C1CC1)N1CCN(Cn2sc3ccccc3c2=O)CC1 [LOC13, 2-[[4-(cyclopropylcarbonyl)-1-piperazinyl]methyl]-1,2-benzisothiazol-3(2H)-one]
significantly decreased: hCoV-OC43 envelope protein mRNA level | hCoV-OC43 membrane protein mRNA level | hCoV-OC43 spike protein mRNA level
